Results reported in patent US20060194947A1, “Peptide gap junction modulators” (priority 2002, published 2006).
Like-named read-outs stand apart in the source and are kept apart here. Where a SMILES comes first, the peptide text is derived from it. [ ]: non-standard residue; d: D form. The star is where a group is joined. Bz = O=C(c1ccccc1)*

Legend:
[1] = Oral bioavailability, pharmacokinetic screening (i.v./p.o. cross-over, LC/MS/MS); assay type: in vivo; conditions: male, rat, plasma, Sprague-Dawley rats
Source text: The water used for these experiments was of highest quality obtained from a reversed osmosis primary system in combination with a Milli-Q water secondary treatment system (Millipore, Bedford, Mass., USA). Methanol was super gradient quality obtained from Labscan Ltd. (Dublin, Ireland). Formic acid p.a. (98-100%) was obtained from Merck (Darmstadt, Germany). Heptafluorobuturicacid, HPLC grade wAs obtained from Pierce (Rockford, Ill., USA). EDTA stabilised plasma from rat (Sprague-Dawley) was obtained from Harlan Sera Lab Ltd. (Loughborough, UK). Blood samples were collected in potassium EDTA coated microtainers from BD Vacutainer Systems (Plymouth, UK). Sample preparation by ultra filtration was performed using Microcon centrifugal filter devices with a molecular weight cut off of 3000 obtained from Millipore (Bedford, Mass., USA).
The LC/MS/MS analysis was performed on a Waters Alliance 2790 HPLC instrument in combination with a Quattro Ultima mass spectrometer from Micromass (Manchester, UK). Both the LC and MS were controlled by MassLynx 3.5 software. The LC separations prior to MS/MS detection were performed on an XTerra MS C18 (2.0×50 mm), 3.5 μm particles, (Waters, Milford, Mass., USA).
Twelve male Sprague-Dawley rats (approx 350 g) were obtained from M&B (Denmark) and catheters were inserted into the femoral vein and artery during Hypnorm®-Dormicum® anaesthesia. After surgery, the rats were allowed to recover for five days before drug administration was initiated.
The dipeptides (Compound 22, Compound 21, Compound 23, Compound 96, Compound 95 and Compound 54) were obtained as the TFA salts and dissolved in PBS (2.6 mM KCl, 137 mM NaCl, 1.5 mM KH2PO4 and 8.2 mM Na2HPO4 adjusted to pH=7.4) to give concentrations of 500 μM. The dosing volumes were 1 mL/kg corresponding to doses of 500 nmol/kg, respectively. After each experiment the dosing solutions were diluted in 0.5% formic acid in water and analysed by LC/MS/MS for their content of drug substance. The concentrations of drug substance in the dosing solutions were calculated from the responses of standards in the range from 1 to 1000 nM.
The drug substances were administered to two animals as i.v. and p.o. bolus in a cross-over study design. The p.o. dose was administered to rats fasted for a 17 hours period prior to drug administration. The animals were allowed to rest for 48 hours in between drug administrations. After the first experiment the rats received a blood transfusion with heparin treated blood.
Prior to drug administration (5 min) the rats received 500 IU heparin as an i.v. bolus and a control blood sample was collected. After drug administration blood samples of approx. 250 μL were collected from the femoral artery at the following time points; before dose (B.D.), 5, 15, 30, 60, 120, 180 and 240 min after i.v. administration and at B.D., 10, 30, 50, 80, 120, 180, 240, and 300 min after p.o. administration. The blood samples were stored on ice until centrifugation for 5 min at 10.000×g (4° C.) and the plasma (100 μL) were transferred to 1.5 mL polypropylene tubes and stored at −20° C. until sample preparation and LC/MS/MS analysis.
The plasma samples were thawed on ice, and 100 μL plasma was mixed with 100 μL 1% (v/v) formic acid and transferred to microcon YM-3 filter units. The samples were then centrifuged for 1 hr at 8.300×g at room temperature. The filtrates were collected in 300 μL autosampler vials and stored at 4° C. until injection (40 μL) onto the LC column. The chromatography was performed at 50° C. using a linear gradient from 100% buffer A (0.1% formic acid in water) to 100% buffer B (0.1% formic acid in acetonitrile) in 4 min, followed by 3 min wash using buffer B and finally a reequilibration period for 7 min using buffer A. The detection of the drug substances were performed by MS/MS using argon as collision gas (1.3×10^−3 mbar). […]

[2] = system: calcium-induced arrhythmias (2nd degree AV block); test: Standard calcium-induced arrhythmia assay; assay type: in vivo, Male NMRI mice; conditions: mice, i.v. 3 min before CaCl2 infusion; (tarr(testcompound)−tarr(vehicle))×100/tarr(vehicle)
Description: Peptides suitable for administration to cardiac cells can be identified in an in vivo model of calcium-induced arrhythmias according to the model of Lynch et al. (1981) J Cardiovasc. Pharmacol. 3: 49-60. Mice (25-30 g) are anaesthetized with a neurolept anaesthetic combination and an i.v. cannula is inserted into the tail vein. A lead II ECG signal is recorded continuously by positioning a stainless steel ECG electrodes on the right forelimb and on the left hind limb. The ground electrode is placed on the right hind limb. The signal is amplified (×5.000-10.000) and filtered (0.1-150 Hz) via a Hugo Sachs Electronic model 689 ECG module. The analog signal is digitized via a 12 bit data acquisition board (Data Translation model DT321) and sampled at 1000 Hz using the Notocord HEM 3.1 software for Windows NT. After a 10-minute equilibration period, the test sample of peptide is injected into the tail vein. Mice pre-treated with buffer are tested as a measure of the control level in untreated animals. The injection volume is 100 μl in all experiments.
Infusion of CaCl2 (30 mg/ml, 0.1 ml/min≈100 mg/kg/min (calcium chloride-2-hydrate, Riedel-de Haën, Germany)) is started 3 min after i.v. administration of drug or vehicle. The time lag to onset of 2nd degree AV-block is determined as the time from the start of CaCl2 infusion until the first arrhythmic event occurs. An event of 2nd degree AV-block is defined as intermittent failure of the AV conduction characterised by a P-wave without the concomitant QRS complex.
Responses are expressed relative to the time until 2nd degree AV-block occurred in vehicle treated mice. The maximal effect of compounds (e.g., peptides, AAP, AAP10 or controls) is determined. […] Preferably, […], the peptides provide at least about 40% of the activity of AAP, for example at least about 50% of the activity of AAP, such as about 60% of the activity of AAP, for example at least about 70% of the activity of AAP, such as at least about 80% of the activity of AAP, for example at least about 90% of the activity of AAP, for example at least about substantially the same activity of AAP, such as about 110% of the activity of AAP, for example at least about 120% of the activity of AAP, such as at least about 130% of the activity of AAP, for example at least about 140% of the activity of AAP, such as about 150% of the activity of AAP, for example at least about 160% of the activity of AAP, such as at least about 170% of the activity of AAP, for example at least about 180% of the activity of AAP, preferably at least about 190% of the activity of AAP, more preferably at least about 200 or greater % of the activity of AAP (i.e., the peptides show time lags of approximately the same duration as induced by AAP).
The anti-arrhythmic effect of the dipeptides was determined in a model of calcium-induced arrhythmias according to the model of Lynch et al.. Male NMRI mice (25-30 g; Bomholdtgaard, LI. Skendsved, Denmark) were anaesthetised with a neurolept anaesthetic combination (Hypnorm® (fentanyl citrate 0.315 mg/ml and fuanisone 10 mg/ml)+midazolam (5 mg/ml)). Commercial solutions of Hypnorm® and midazolam were diluted 1:1 in distilled water, and one part diluted Hypnorm® was mixed with one part diluted midazolam. Anaesthesia was induced by s.c. administration of this solution in a dose of 50-75 μl/10 gram mouse.
An i.v. cannula was inserted into the tail vein. The lead II ECG signal was recorded continuously by positioning of stainless steel ECG electrodes on the right forelimb and on the left hind limb. The ground electrode was placed on the right hind limb. The signal was amplified (×5.000-10.000) and filtered (0.1-150 Hz) via a Hugo Sachs Electronic model 689 ECG module. The analogue signal was digitised via a 12-bit data acquisition board (Data Translation model DT321) and sampled at 1000 Hz using the Notocord HEM 3.1 software for Windows NT. […]

[3] = system: Human primary osteoblasts; test: Osteoblast activity (ALP assay); assay type: cell-based; conditions: cell lysate, stimulated 1×10^−13 to 1×10^−6 for the last 4 days, compared to vehicle treated control cultures
Description: Cells also can be measured for the presence of alkaline phosphatase activity to provide a general measure of osteoblast activity. In one aspect, cells are plated in 96-well plates at a concentration of 8000 cells/well (hOB) or 3000 cells/well (ROS) in 200 μl normal culture medium. On day 4 (or day 3 for ROS cells), cells are washed with 200 μl MEM, 0.1% BSA (Sigma, Cat.No. A-9418). Samples comprising a suitable medium (e.g., 200 μl MEM, 0.1% BSA) containing various concentrations of peptides, control, AAP or AAP10 are added to the cells, and culture is continued for about 4 days (2 days for ROS cells).
On about day 8 (preferably day 5 for ROS cells), cells are assayed for alkaline phosphatase using an Alkaline Phosphatase (ALP) assay such as is known in the art. ALP assays are generally colorimetric endpoint methods for measuring enzyme activity, and can be performed using an Alkaline Phosphatase Kit (Sigma, Cat.No. 104-LL). Preferably, cells are washed once with 200 μl PBS+Ca, Mg, 100 μl Alkaline Buffer Solution is added to each well and the cells are incubated at 37° C. for 10 minutes. 100 μl Substrate Solution is subsequently added to each well and the plate is incubated at 37° C. for 30 min. 100 μl 2.0 N NaOH is added to each well to stop the reaction. Absorbance is measured using a plate reader at 405 nm.
Human primary osteoblasts were obtained from bone marrow biopsies of the posterior iliac spine from voluntary donors. Cells were used at 6 weeks of culturing. Cells were cultured in 24-well plates in an 8 days process and stimulated with the test compounds in concentrations from 1×10^−13 to 1×10^−6 for the last 4 days of the experiment. Cell lysate was collected for determination of ALP activity. hOB cells from 10-15 donors were used for the experiments. For ALP measurements a commercially available kit (Alkaline Phosphatase Kit, Sigma-Aldrich Denmark A/S) was used. All determinations were performed according to the manufacturer's recommendations.
ALP was determined on cell lysate collected at termination of the experiment. Measurements were compared with and to vehicle treated control cultures.
Data are presented as means and standard deviations or medians and percentiles as appropriate. Two-way ANOVA is performed using Fisher's LSD test for post-hoc comparisons, using a 0.05 level of significance.

[4] = oral, TFA salts in PBS, 500 nmol/kg i.v. and p.o. bolus, p.o. fasted 17 hours, dose normalised AUCpo/AUCiv, read-out: F (%) Mean (mean bioavailability)
[5] = oral administration 500 nmol/kg, read-out: bioavailability

Compound | bioavailability [1, 4] | bioavailability [1, 5] | % response (time lag to onset of 2nd degree AV block relative to vehicle) [2] | ALP activity relative to vehicle control (ratio) [3]
COc1ccc(C(=O)NCCCC[C@@H](N)C(=O)NCC(=O)O)cc1 [Compound 21, H-D-Lys(4-methoxybenzoyl)-Gly-OH] | 2.6% | 2 to 8% | 55.0% | 
N[C@H](CCCCNC(=O)c1ccc([N+](=O)[O-])cc1)C(=O)NCC(=O)O [Compound 22, H-D-Lys(4-nitrobenzoyl)-Gly-OH] | 31% | 10 to 31% | 52.0% | 1.12
N[C@H](CCCCNC(=O)c1ccccc1)C(=O)NCC(=O)O [Compound 23, H-D-Lys(benzoyl)-Gly-OH] (H-[dK](Bz)-Gly-OH) | 10% | 10 to 31% | −8.0% | 1.08
CC(C)(C)c1ccc(C(=O)NCCCC[C@@H](N)C(=O)NCC(=O)O)cc1 [Compound 54, H-D-Lys(4-t-butylbenzoyl)-Gly-OH] | 7.2% | 2 to 8% | 61.3% | 
COc1ccc(CNC(=O)C[C@@H](N)C(=O)N[C@@H](C)C(=O)O)cc1 [Compound 95, H-D-Asn(NH(4-methoxybenzyl))-Ala-OH] | 29% | 10 to 31% | 0.3% | 1.14
C[C@H](NC(=O)[C@H](N)CC(=O)NCc1ccc([N+](=O)[O-])cc1)C(=O)O [Compound 96, H-D-Asn(NH(4-nitrobenzyl))-Ala-OH] | 15% | 10 to 31% | 54% | 
H-Asn(NH(4-methoxybenzyl))-D-Ala-OH [Compound 80] |  |  | 33% | 
H-Gly-Lys(4-cyanobenzoyl)-OH [Compound 3] |  |  | 37.0% | 
H-Gly-Lys(4-methoxybenzoyl)-OH [Compound 4] |  |  | 69.0% | 
H-Gly-Lys(4-nitrobenzoyl)-OH [Compound 1] |  |  | 52.0% | 1.08
H-Lys(4-nitrobenzoyl)-Gly-OH [Compound 7] |  |  | 40% | 
